Laboratory results taken from patent US20190160156A1, “Use of Acid Stable Proteases in Animal Feed, Preferably to Increase Performance of Cocc-Vaccinated Broiler Chickens” (Novozymes A/S, priority 2011, published 2019).

Tested on: male birds Cobb X Cobb chicks
Test: Floor pen feeding trial of cocci-vaccinated birds with ProAct and enzyme combinations (Example 3)
Type: in vivo, male broiler chickens (Cobb X Cobb)
Conditions: Day 42, male Cobb X Cobb broilers
Experimental: A floor pen trial was conducted using day old male birds Cobb X Cobb chicks. A total of 2,160 were allocated to the study. The experiment consisted of 48 pens of 45 male broiler chickens. Treatments were replicated in eight (8) blocks with six (6) treatments randomized in each. The birds were fed nutritionally-adequate basal diets based on corn/soybean meal and adjusted to the bird age by feeding a starter diet from day 1 to 16 and a grower diet from day 17 to 32 and a finisher diet from day 33 to 42. The 6 treatments were as follows:
As treatment RONOZYME® enzyme products, supplied by DSM Nutritional Products, Kaiseraugst, Switzerland have been used.
Ronozyme®AX=80% Ronozyme®WX+20% Ronozyme®A
Ronozyme® ProAct=pure protease product.
All birds received Cocci Vac® B on day 1 of age administered nasally in the hatchery except the positive control birds that were given a standard dose of the coccidiostat Salinomcyin of 60 g/ton of feed throughout the study
At the end of the trial at day 42 the average bird weight (Avg. Wt. Gain) and the average feed consumption (Feed Consump.) were determined and the Feed Conversion Ratio (FRC) was calculated by dividing the feed intake by the weight gain for each treatment

CC[C@@H](C(=O)[C@@H](C)[C@@H](O)[C@H](C)[C@@H]1O[C@@H]([C@@H](CC)C(=O)O)CC[C@@H]1C)[C@H]1O[C@]2(C=C[C@@H](O)[C@]3(CC[C@@](C)([C@H]4CC[C@](O)(CC)[C@H](C)O4)O3)O2)[C@H](C)C[C@@H]1C [Salinomcyin 60 g/t, Salinomycin]
Avg. Wt. Gain (average bird weight): 2.490 a | Feed Consump. (average feed consumption): 191.58 a | FCR (feed intake divided by weight gain): 1.719 days
